According to patent US11446299B2, “Carbazole EHop-016 derivatives as anticancer and anti-migratory agents” (UNIVERSITY OF PUERTO RICO, priority 2017, dated 2022):
Where two headings read alike, the source gives them in different places.

Assays:
[1] = test system: MDA-MB-231 breast cancer cells; assay: Wound healing assay (scratch method), cell migration; format: cell-based, human; details: Homo sapiens, MDA-MB-231; for activity at 10 µM: percent relative migration at 10 μM after 24 h, relative to control; for inhibition at 10 µM: read-out: anti-migratory activity (inhibition of migration)
Experimental: The experimental data of anti-migratory activities for compounds 3a-d and 4a-f were obtained using MDA-MB-231 breast cancer cells. For the migration assay, a wound-healing assay (scratch-wound assay) was utilized in the presence of vehicle (0.02% DMSO) or compounds at […].
Prior to assays, cells were grown until 80-90% confluence was observed. A 75 cm2 flask was used for 2.6×10^5 cells/mL in 10 mL and for a 25 cm2 flask 1.44×10^5 cells/mL in 5 mL. The cells were washed with PBS to remove all traces of FBS. 2 mL was added for a 25 cm2 flasks or 4 mL for a 75 cm2 flasks trypsin, and incubated 5-10 min at 37° C. At the end of the incubation time, cells were re-suspended and counted with hemocytometer using 1:2 dilutions with Trypan blue. Subsequently, cell viability was calculated. In a 12 multiwell plate, the plastic pattern was used to draw a fine space with a fine marker on the bottom of the plate. Cells were seeded at 1.5-2.2×10^5 cells/mL in 1 mL and incubated for 24 h. Cells were then rinsed with PBS and incubated in starving media (0.5% FBS) overnight. All controls and drugs were tested in triplicate. The negative control for each drug was prepared according to the drug's DMSO concentration.
Drugs were diluted and the final concentration at each well […]. The wound was made using a sterile pipette tip of […]. Cells were then rinsed very gently with media without FBS and media with negative controls was added. After a 24 h incubation, the gap distance was evaluated using the software Lumera Infinity Analyze 6.4.0. Pictures were taken at 0, 8, 12 and 24 h using a 10× objective. The percentage of migration was calculated using the following formula: 100−[(X0/X0)]*100 for time 0 h measurements 100−[(X24/X0)]*100 for time 24 h measurements
The experimental data of anti-migratory activities for compounds 3a-d and 4a-f were obtained using MDA-MB-231 breast cancer cells, and results are summarized in Table 1. For the migration assay, we used a wound-healing assay (scratch-wound assay)^22 in the presence of vehicle (0.02% DMSO) or compounds at 10 μM (FIG. 6). […] However, compounds 3a, 3c, and 4a-f inhibited migration in the range of 1-9%.
An additional example of a compounds with modification in building block C was synthesized via a different procedure as represented in Scheme 2B (see FIG. 11B). The compounds that were synthesized were tested for their biological activity by determination of their cytotoxicity in MDA-MB-231 breast cancer cell lines as shown in Table 5. The cytotoxicity's are expressed as IC50, which indicates the concentration at which 50% of the cell growth is inhibited. Furthermore, the inhibition of cell migration was tested at a concentration of 0.2×IC50, or, when the IC50 was >50 μM at a concentration of 10 μM. For comparison, Table 5 also includes the Lipinski and drug-likeness parameters as calculated via the MolSoft platform.
Migration assays were performed via the Scratch Method as described previously.

[2] = test system: MCF-7 cancer cells; assay: Sulforhodamine B (SRB) growth inhibition assay; format: cell-based; details: Homo sapiens, MCF7, 24 h treatment, mean of triplicate, SD <10%
Experimental: (§1) Various compounds were tested to evaluate the dose response curve for effect on MCF-7 cancer cells and MDA-MB-231 cancer cells. MCF-7 and MDA-MB-231 cells were cultured in 10% Minimum Essential Medium Eagle (MEME) supplemented with Earle's Balanced Salt Solution (EBSS), Non-essential Amino acids (NEAA), Sodium pyruvate, Pen/Strep, L-glutamine and Fetal Bovine Serum (FBS) at 37° C. in 5% CO2.
(§2) Sulforhodamine B (SRB) Assay: A stock solution of compounds was prepared at 50 mM in 100% DMSO. For cells preparation, a flask of 75 cm^2 or 25 cm^2 were used for 2.6×10^5 cells or 1.44×10^5 cells respectively with an 80-90% of confluence. Cells were washed with PBS and trypsinized. The concentration of cells was determined using a 1:2 dilutions with Trypan Blue and a hemocytometer. After cell count, the concentration was adjusted to have a 1.9×10^4 cells/well. Approximately […] of cells suspension, compounds, control positive and control negative were added in triplicates to a 96 well plate. Positive controls used were ellipticine, doxorubicin, and/or vincristine, and the negative control was DMSO 0.1%. All compounds at 50, 25, 12.5, 6.3, and 1.6 μM were incubated with cells at 37° C. for 24 hrs. For fixation, cold TCA 50% was used and incubated at 4° C. for 1 hr. Wells were washed and dried prior to tincture with 100 μL of SRB 0.4%. To remove excess of SRB, acetic acid was used. For analysis, TRIS-BASE Solution (pH=10.5) was used and shacked prior to reading using an ELISA reader at 510 nm and the software SoftMax Pro 4.8.
(§3) For each compound, 50% growth inhibition (GI50) was calculated from Sigmoidal dose-response curves (variable-slope) that were generated with data obtained from experiments carried out in triplicates (GI50 values were generated with GraphPad Prism V. 6.02, GraphPad Software, Inc.). The results are presented in FIGS. 4A-4B (MCF-7 cancer cells) and FIGS. 5A-5B (MDA-MB-231 cancer cells).

[3] = test system: MDA-MB-231 cancer cells; assay: Sulforhodamine B (SRB) growth inhibition assay; format: cell-based, human; details: for GI50: Homo sapiens, MDA-MB-231, SRB assay, 24 h treatment, mean of triplicate, SD <10%; for anti-proliferative activity / cytotoxicity in words: MDA-MB-231, concentrations ≤50 μM
Experimental: as §1, §2, §3

Row | GI50 [2] | GI50 [3] | Structure (SMILES) | activity at 10 µM [1] | inhibition at 10 µM [1] | inhibition at 10 µM ([1]; at 10 μM, 24 h) | anti-proliferative activity / cytotoxicity in words [3] | anti-proliferative activity in words ([3]; MDA-MB-231 at <50 pM as printed)
1 | 15 µM | 23 µM | CCn1c2ccccc2c2cc(Nc3ncccc3NC(=O)CCN3CCCCC3)ccc21 [Compound 7a, N-[2-(9-Ethyl-9H-carbazol-3-ylamino)-pyridin-3-yl]-3-piperidin-1-yl-propionamide] | 99 ± 4.29% |  |  |  | 
2 | 41 µM | 31 µM | CCn1c2ccccc2c2cc(Nc3ncccc3NC(=O)c3cccnc3)ccc21 [Compound 7b, N-(2-((9-ethyl-9H-carbazol-3-yl)amino)pyridin-3-yl)nicotinamide] | 81 ± 11.1% |  |  |  | 
3 | 23 µM | > 50 µM | CCn1c2ccccc2c2cc(Nc3ncccc3NCC(=O)N3CCOCC3)ccc21 [Compound 7c] | 81 ± 8.27% |  |  | minimal cytotoxicity | 
4 | 32 µM | 39 µM | CCn1c2ccccc2c2cc(C(=O)Nc3cccnc3NCCCN3CCOCC3)ccc21 [Compound 11a, 9-Ethyl-9H-carbazole-3-carboxylic Acid [2-(3-morpholin-4-yl-propylamino)-pyridin-3-yl]-amide] | 89 ± 10.1% |  |  |  | 
5 | > 50 µM | > 50 µM | CCn1c2ccccc2c2cc(NC(=O)c3nccnc3C(=O)NCCN3CCOCC3)ccc21 [Compound 14a, N^2-(9-ethyl-9H-carbazol-3-yl)-N^3-(2morpholinoethyl)pyrazine-2,3-dicarboxamide] | 91 ± 5.23% |  |  |  | 
6 | > 50 µM | > 50 µM | CCn1c2ccccc2c2cc(NC(=O)c3nccnc3C(=O)NCCCN3CCOCC3)ccc21 [Compound 14b, N^2-(9-ethyl-9H-carbazol-3-yl)-N^3-(3-morpholinopropyl)pyrazine-2,3-dicarboxamide] | 94 ± 5.87% |  |  |  | 
7 | > 50 µM | > 50 µM | CCn1c2ccccc2c2cc(NC(=O)c3nccnc3C(=O)NCCCn3ccnc3)ccc21 [Compound 14c, Pyrazine-2,3-dicarboxylic acid 2-[(9-ethyl-9H-carbazol-3-yl)-amide]-3-[(3-imidazol-1-yl-propyl)-amide]] | 99 ± 4.5% |  |  |  | 
8 | > 50 µM | > 50 µM | CCn1c2ccccc2c2cc(NC(=O)c3nccnc3C(=O)NCCOC)ccc21 [Compound 14d, N^2-(9-ethyl-9H-carbazol-3-yl)-N^3-(2-methoxyethyl)pyrazine-2,3-dicarboxamide] | 100 ± 5.2% |  |  |  | 
9 | > 50 µM | > 50 µM | CCn1c2ccccc2c2cc(NC(=O)c3ccccc3C(=O)NCCOC)ccc21 [Compound 14e, N^1-(9-ethyl-9H-carbazol-3-yl)-N^2-(2-methoxyethyl)phthalamide] | 99 ± 2.57% |  |  |  | 
10 | > 50 µM | > 50 µM | CCn1c2ccccc2c2cc(NC(=O)c3ccccc3C(=O)NCCO)ccc21 [Compound 14f, N^1-(9-ethyl-9H-carbazol-3-yl)-N^2-(2-hydroxyethyl)phthalamide] | 98 ± 1.83% |  |  |  | 
11 | > 50 µM | > 50 µM | CCn1c2ccccc2c2cc(NC(=O)C3CCCCC3C(=O)NCCN3CCOCC3)ccc21 (stereo not shown) [Compound 14g] | 99 ± 1.63% |  |  |  | 
12 | > 50 µM | > 50 µM | CCn1c2ccccc2c2cc(NC(=O)C3CCCCC3C(=O)NCCCN3CCOCC3)ccc21 (stereo not shown) [Compound 14h, cyclohexane-1,2-dicarboxylic acid 1-[(9-ethyl-9H-carbazol-3-yl)-amide]-2-[(3-morpholin-4-yl-propyl)-amide]] | 100 ± 0.56% |  |  |  | 

Continued, compound first:

Row | Structure (SMILES) | GI50 [2] | GI50 [3] | activity at 10 µM [1] | inhibition at 10 µM [1] | inhibition at 10 µM ([1]; at 10 μM, 24 h) | anti-proliferative activity / cytotoxicity in words [3] | anti-proliferative activity in words ([3]; MDA-MB-231 at <50 pM as printed)
13 | CCn1c2ccccc2c2cc(NC(=O)c3cccnc3N3CCN(C(C)=O)CC3)ccc21 [Compound 3a, 2-(4-acetylpiperazin-1-yl)-N-(9-ethyl-9H-carbazol-3-yl)nicotinamide] | > 50 µM | > 50 µM | 93 ± 11.7% |  |  |  | 
14 | CCn1c2ccccc2c2cc(NC(=O)c3cccnc3N3CCOCC3)ccc21 [Compound 3b, N-(9-ethyl-9H-carbazol-3-yl)-2-morpholinonicotinamide] | > 50 µM | > 50 µM | 68 ± 10.5% | 32% | 32% | no anti-proliferative activity | minor anti-proliferative activity
15 | CCn1c2ccccc2c2cc(NC(=O)c3cccnc3N3CCN(c4ccccc4)CC3)ccc21 [Compound 3c, N-(9-ethyl-9H-carbazol-3-yl)-2-(4-phenylpiperazin-1-yl)nicotinamide] | > 50 µM | > 50 µM | 99 ± 1.89% |  |  |  | 
16 | CCn1c2ccccc2c2cc(NC(=O)c3cccnc3NCCCN3CCOCC3)ccc21 [Compound 3d] | > 50 µM | 19 µM | 76 ± 7.87% | 24% | 24% |  | 
17 | CCn1c2ccccc2c2cc(Nc3ncccc3C(=O)NCCCN3CCOCC3)ccc21 [Compound 4a, 2-(9-ethyl-9H-carbazol-3-ylamino)-N-(3-norpholinopropyl)nicotinamide] | 28 µM | > 50 µM | 99 ± 1.28% |  |  |  | 
18 | CCn1c2ccccc2c2cc(Nc3ncccc3C(=O)NCCN3CCN(C(=O)OC(C)(C)C)CC3)ccc21 [Compound 4b] | > 50 µM | > 50 µM | 95 ± 9.8% |  |  |  | 
19 | CCn1c2ccccc2c2cc(Nc3ncccc3C(=O)NCCCn3ccnc3)ccc21 [Compound 4c, N-(3-(1H-imidazol-1-yl)propyl)-2-((9-ethyl-9H-carbazol-3-yl)amino)nicotinamide] | 27 µM | > 50 µM | 93 ± 2.01% |  |  |  | 
20 | CCN(CC)CCCC(C)NC(=O)c1cccnc1Nc1ccc2c(c1)c1ccccc1n2CC (stereo not shown) [Compound 4d, N-(4-Diethylamino-1-methyl-butyl)-2-(9-ethyl-9H-carbazol-3-ylamino)-nicotinamide] | 13 µM | 18 µM | 91 ± 14.1% |  |  |  | 
21 | CCN(CC)CCNC(=O)c1cccnc1Nc1ccc2c(c1)c1ccccc1n2CC [Compound 4e, N-(2-(diethylamino)ethyl)-2-((9-ethyl-9H-carbazol-3-yl)amino)nicotinamide] | 14 µM | 18 µM | 99 ± 4.12% |  |  |  | 
22 | CCn1c2ccccc2c2cc(Nc3ncccc3C(=O)Nc3cc(OC)c(OC)c(OC)c3)ccc21 [Compound 4f, 2-((9-ethyl-9H-carbazol-3-yl)amino)-N-(3,4,5-trimethoxyphenyl)nicotinamide] | > 50 µM | > 50 µM | 92 ± 8.55% |  |  |  | 
